Results reported in patent publication US10174065B2, “Antidiabetic enolic glucoside of phenylpyruvic acid” (ZADEC APS, priority 2010, dated 2019).

Legend:
plasma glucose level = assay: Reduction in plasma glucose of a diabetic primate after a single dose (FIG. 1); type: in vivo, monkeys; settings: diabetic primate M1081, baseline glucose 6.3 mmol/L, over 6 h after a single dose, 10.4 ug/kg BW
gene expression in liver = assay: Quantitative real-time PCR gene expression in liver of obese, insulin resistant Wistar rats; type: in vivo
Method: (§1) Three week old male rats were fed a high fat diet for 24 weeks to induce obesity and insulin resistance. Thereafter, rats were treated with 0.3 mg/kg Rx-1 daily for two weeks, and then with 3 mg/kg Rx-1 daily for seven days. Fasting glucose concentrations were measured before treatment, after two weeks treatment with 0.3 mg/kg Rx-1 and then again after seven days treatment with 3 mg/kg Rx-1. After treatment with 3 mg/kg Rx-1 rats were terminated and liver, muscle and pancreas biopsies were taken. Quantitative real-time PCR was used to measure the expression of 12 genes in liver and muscle samples, and ten genes in pancreas samples.
(§2) Rats were housed at the Primate Unit (Medical Research Council, South Africa). Rat management including feeding, glucose measurements and terminations, were done according to standard operating procedures (Diabetes Discovery Platform, Medical Research Council). Briefly, three week old rats were fed a high fat diet for 24 weeks to induce T2D. The study group consisted of thirteen rats, eight rats were treated by daily gavage with 0.3 mg/kg Rx-1 for two weeks, and then with 3 mg/kg Rx-1 for seven days. Five rats were used as controls and were treated with water only for three weeks. Rats were terminated after treatment and liver, muscle and pancreas tissue harvested and stored in RNalater (Ambion) as recommended by the manufacturer. The study was approved by the ethics committee of the Medical Research Council of South Africa.
Tissue was removed from RNAlater, weighed (80-100 mg), and placed in a 2 ml microfuge tube containing 1 ml of Trizol (Invitrogen) and a stainless steel bead (Qiagen). Tissue was homogenised in the TissueLyser (Qiagen) at 25 Hz for 6 min, centrifuged at 12,000 g for 10 min at 4° C., and the supernatant removed and incubated at room temperature for 5 min. Thereafter, 0.2 ml of chloroform (Sigma) was added, shaken vigorously for 15 sec, and then incubated at room temperature for 3 min with occasional mixing. Samples were centrifuged 12,000 g for 15 min at 4° C. and the aqueous phase was transferred to a new tube. RNA was precipitated by adding 0.5 ml isopropanol, mixed well for 30 sec, and placed at −20° C. overnight. The following day, tubes were centrifuged at 12,000 g for 20 min at 4° C. The pellet was washed with 1 ml of 75% ethanol and centrifuged at 12,000 g for 15 min at 4° C. The wash step was repeated. After the second wash, the pellet was air dried by placing tubes with their lids open (on ice) in a PCR cabinet for 2 hours. Excess liquid was removed by blotting tubes on paper towel occasionally during this incubation. The pellet was resuspended by adding 100 μl RNase-free water and incubating at 55° C. for 10 min. RNA concentrations were determined using a spectrophotometer (Nanodrop Technologies). Thereafter, RNA was purified with the RNeasy Mini Kit according to the manufacturer's instructions (Qiagen) and concentrations again determined with the Nanodrop. Genomic DNA was removed by treating RNA with Turbo DNA-free DNase (Ambion) and incubating at 37° C. for 90 min according to the manufacturer's instructions, but using 1.5× the units of DNase and incubation time recommended by the kit. In brief, 20 μg RNA was incubated with 1.5 μl (3 units) DNase, 5 μl DNase buffer, and nuclease-free water in a final reaction volume of 50 μl for 45 min at 37° C., thereafter, another 3 units of DNase was added and incubated for a further 45 min. DNase was inactivated by adding ⅕ volume (10 μl) of the DNase inactivation reagent supplied with the kit. Reactions were incubated at room temperature for 2 min, and centrifuged at 14,000 rpm for 1.5 min. The supernatant was removed and RNA concentrations were measured using the Nanodrop. The quality of the DNase-treated RNA was determined with the RNA 6000 Nano kit using the 2100 Bioanalyser Lab-on-a-Chip system as recommended by the manufacturers (Agilent technologies). […]

[1] = tested on: gene expression in muscle; assay: Quantitative real-time PCR gene expression in muscle of obese, insulin resistant Wistar rats; type: in vivo
Method: as §1, §2
(§3) RNA extracted from liver, muscle and pancreas tissue was converted to cDNA using the High Capacity Reverse Transcription kit as recommended by the manufacturers (Applied Biosystems). In brief, 2 μg of DNase-treated RNA was added to nuclease-free water in a volume of 10 μl. Thereafter, 2 μl reaction buffer, 0.8 μl dNTPs, 2 μl random primers, 1 μl RNase-inhibitor, 1 μl reverse transcriptase, and 3.2 μl nuclease-free water were added. The same reaction without the reverse transcription enzyme (minus RT reaction) was set-up to investigate genomic DNA contamination. Reactions were incubated at 25° C. for 10 min, 37° C. for 120 min, and 85° C. for 5 s to inactivate the reverse transcriptase. cDNA samples were stored at −20° C. until expression analysis.
(§4) For analysis of gene expression, 25 ng of cDNA prepared from liver, muscle and pancreas was mixed with 12.5 μl Taqman universal PCR master mix (Applied Biosystems), 1.25 μl gene-specific primer and probe mixtures (predeveloped Taqman gene expression assays, Applied Biosystems), and H2O in a final volume of 25 μl. The suffix _m represents an assay whose probe spans an exon-exon junction of the associated gene and therefore will not detect genomic DNA, while the suffix _s represents an assay whose primers and probes are designed within a single exon, such assays will detect genomic DNA.
(§5) The PCR reactions were conducted on the ABI 7500 Sequence Detection System Instrument (Applied Biosystems) using universal cycling conditions as described before. All samples were run in duplicate. Data generated on the ABI 7500 Instrument were analysed with the ABI Relative Quantitation (RQ) software (SDS V1.4) using a Ct threshold of 0.1. Relative expression levels were determined by using the 2^−ΔΔCt method, where ΔΔCt=(Ctgene studied−Cthousekeeping gene)treated−(Ctgene studied−Cthousekeeping gene)control. The gene expression was normalised to housekeeping genes to correct for differences in cDNA loading. Two gene expression assays, β-actin (ActB) and glyceraldehyde-3-phosphate dehydrogenase (Gapdh) (Table 1) were used as endogenous controls. Relative gene expression data generated by the RQ software for each of the two endogenous controls individually or the data normalised to the average of the two endogenous controls were imported into Microsoft Excel and analysed. […]

[2] = tested on: gene expression in pancreas; assay: Quantitative real-time PCR gene expression in pancreas of obese, insulin resistant Wistar rats; type: in vivo
Method: as §1, §2, §3, §4, §5

[3] = liver, 0.3 mg/kg two weeks then 3 mg/kg seven days
[4] = liver, not statistically significant

For `O=C(O)/C(=C/c1ccccc1)O[C@@H]1O[C@H](CO)[C@@H](O)[C@H](O)[C@H]1O` [RX-1, 3-Phenyl-2-(3,4,5-trihydroxy-6-hydroxymethyl-tetrahydro-pyran-2-yloxy)-acrylic acid], the “reduction in plasma glucose level” value (plasma glucose level) was “reduce the blood sugar of monkeys for prolonged periods of time”, the Pi3k expression (gene expression in liver; liver only, not significant) was “upregulated” and the Gck gene expression (gene expression in liver; liver, 0.3 mg/kg daily two weeks then 3 mg/kg daily seven days, not statistically significant) was “increased”. For the same compound, the Glut1 expression (gene expression in liver; [3]) was “increased”, the Glut2 expression (gene expression in liver; [3]) was “increased” and the IR gene expression (gene expression in liver; [3]) was “upregulated”. For the same compound, the “IRS1 mRNA levels” value (gene expression in liver; [3]) was “unchanged”, the IRS2 gene expression (gene expression in liver; [3]) was “increased” and the PPARα expression (gene expression in liver; [3]) was “significantly upregulated”. The GcgR gene expression (gene expression in liver; [4]) was “increased”, the “SOCS1 mRNA expression” value (gene expression in liver; [4]) was “increased” and the “SOCS3 mRNA expression” value (gene expression in liver; liver, statistically significant) was “increased”. For the same compound, the “Gck mRNA levels” value [1] was “decreased”, the “Glut4 mRNA levels” value [1] was “unaffected” and the IR gene expression [1] was “did not affect”. The “IRS1 mRNA levels” value [1] was “unchanged”, the “IRS2 mRNA levels” value [1] was “unchanged” and the GcgR gene expression ([1]; not statistically significant) was “increased”. For the same compound, the “SOCS1 mRNA expression” value ([1]; not statistically significant) was “increased”, the “SOCS3 mRNA expression” value ([1]; not statistically significant) was “increased” and the “Pcsk2 or proconvertase 2 (PC2) mRNA levels” value [2] was “unaffected”. The “nestin mRNA levels” value [2] was “unaffected”, the GLP1R gene expression ([2]; not statistically significant) was “increased” and the “Gcg mRNA levels” value ([2]; not statistically significant) was “increased”. The “GcgR mRNA levels” value ([2]; not statistically significant) was “increased”, the Ins1 gene expression ([2]; not statistically significant) was “increased” and the Ins2 gene expression ([2]; not statistically significant) was “increased”. The “Isl1 mRNA levels” value ([2]; not statistically significant) was “increased” and the Pdx1 gene expression ([2]; not statistically significant) was “increased”.
